# In PubChem BioAssay AID588672 (Sanford-Burnham Center for Chemical Genomics, 2011):
# Activity calls are given as the source filed them.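 How the source made its calls: active means IC50 at or below 20 µM; inactive means the rest.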
# Target: Glucose-6-phosphate 1-dehydrogenase (Homo sapiens) (UniProt P11413)
# Assay: human G6PD enzyme inhibitors, SAR follow-up, selectivity assay for P. falciparum G6PD inhibitor project, biochemical, fluorescence, dose response, set 2 (AID 588672)
# Conditions: recombinant human G6PD, NADPH-diaphorase-resazurin fluorescence
# Glucose-6-phosphate 1-dehydrogenase (Homo sapiens), sequence (P11413 whole entry, looked up): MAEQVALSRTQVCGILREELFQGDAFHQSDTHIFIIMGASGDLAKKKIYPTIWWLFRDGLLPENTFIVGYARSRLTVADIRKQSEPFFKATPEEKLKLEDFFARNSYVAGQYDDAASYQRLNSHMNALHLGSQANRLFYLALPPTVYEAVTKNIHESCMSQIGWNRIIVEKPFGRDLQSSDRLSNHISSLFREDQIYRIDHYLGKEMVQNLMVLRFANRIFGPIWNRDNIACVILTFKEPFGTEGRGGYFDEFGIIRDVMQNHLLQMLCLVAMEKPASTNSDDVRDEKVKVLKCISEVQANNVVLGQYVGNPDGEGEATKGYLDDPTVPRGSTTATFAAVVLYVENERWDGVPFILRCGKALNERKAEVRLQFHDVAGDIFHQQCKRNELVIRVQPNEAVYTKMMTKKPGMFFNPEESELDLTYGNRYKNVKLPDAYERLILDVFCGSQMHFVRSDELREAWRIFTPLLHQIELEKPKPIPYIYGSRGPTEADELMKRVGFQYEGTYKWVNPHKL
row,SMILES,IC50
1,O=C(NCCN1CCCCC1)c1ccc2c(c1)NC(=O)c1ccccc1O2,> 80 µM (inactive)
2,O=C1Nc2cc(C(=O)NCCN3CCCC3)ccc2S/C1=C\c1ccccc1F,> 80 µM (inactive)
3,O=C(NCCN1CCCC1)c1ccc2c(c1)NC(=O)c1ccccc1O2,> 80 µM (inactive)
4,O=C(NCCN1CCOCC1)c1ccc2c(c1)NC(=O)c1ccccc1O2,> 80 µM (inactive)
5,O=C1Nc2cc(C(=O)NCCN3CCCCC3)ccc2S/C1=C\c1ccccc1F,> 80 µM (inactive)
6,O=C1Nc2cc(C(=O)NCc3ccccc3)ccc2S/C1=C\c1ccccc1F,> 80 µM (inactive)
7,CN(C)CCNC(=O)c1ccc2c(c1)NC(=O)c1ccccc1O2,> 80 µM (inactive)
8,CCN1CCCC1CNC(=O)c1ccc2c(c1)NC(=O)/C(=C/c1cccc3ccccc13)S2 (stereo not given),> 80 µM (inactive)
9,O=C(NCCN1CCCC1)c1ccc2c(c1)NC(=O)c1ccccc1S2,> 80 µM (inactive)
10,CN1CCCC1CCNC(=O)c1ccc2c(c1)NC(=O)/C(=C/c1ccccc1F)S2 (stereo not given),> 80 µM (inactive)
11,CN(C)CCNC(=O)c1ccc2c(c1)NC(=O)/C(=C/c1ccccc1F)S2,> 80 µM (inactive)
12,O=C1Nc2cc(C(=O)NCCN3CCOCC3)ccc2S/C1=C\c1ccccc1F,> 80 µM (inactive)
13,CCN(CC)CCNC(=O)c1ccc2c(c1)NC(=O)c1ccccc1S2,> 80 µM (inactive)
14,CCN(CC)CCNC(=O)c1ccc2c(c1)NC(=O)c1ccccc1O2,> 80 µM (inactive)
15,CN1CCN(C(=O)c2ccc3c(c2)NC(=O)/C(=C/c2ccccc2Cl)S3)CC1,> 80 µM (inactive)

# Continued, values first:
row,IC50,SMILES
1,> 80 µM (inactive),CN(C)CCNC(=O)c1ccc2c(c1)NC(=O)CO2
2,> 80 µM (inactive),O=C1COc2ccc(C(=O)NCCN3CCOCC3)cc2N1
3,> 80 µM (inactive),CCN1CCCC1CNC(=O)c1ccc2c(c1)NC(=O)c1ccccc1S2 (stereo not given)
4,> 80 µM (inactive),CCN1CCCC1CNC(=O)c1ccc2c(c1)NC(=O)/C(=C/c1ccccc1F)S2 (stereo not given)
5,> 80 µM (inactive),CCN1CCCC1CNC(=O)c1ccc2c(c1)NC(=O)c1ccccc1O2 (stereo not given)
6,> 80 µM (inactive),CCN1CCCC1CNC(=O)c1ccc2c(c1)NC(=O)/C(=C/c1ccccc1OC)S2 (stereo not given)
7,> 80 µM (inactive),CCN1CCCC1CNC(=O)c1ccc2c(c1)NC(=O)/C(=C/c1ccccc1)S2 (stereo not given)
8,> 80 µM (inactive),CCN1CCC[C@H]1CNC(=O)c1ccc2c(c1)NC(=O)/C(=C/c1ccccc1F)S2
9,> 80 µM (inactive),CCN1CCC[C@@H]1CNC(=O)c1ccc2c(c1)NC(=O)/C(=C/c1ccccc1F)S2
10,> 80 µM (inactive),CCN1CCCC1CNC(=O)c1ccc2c(c1)NC(=O)/C(=C/c1ccccc1C)S2 (stereo not given)
11,> 80 µM (inactive),CCN(CC)CCNC(=O)c1ccc2c(c1)NC(=O)CO2
12,> 80 µM (inactive),O=C1COc2ccc(C(=O)NCCN3CCCCC3)cc2N1
13,> 80 µM (inactive),CCN1CCCC1CNC(=O)c1ccc2c(c1)NC(=O)CS2 (stereo not given)
14,> 80 µM (inactive),CCN1CCCC1CNC(=O)c1ccc2c(c1)NC(=O)CO2 (stereo not given)
15,> 80 µM (inactive),O=C1COc2ccc(C(=O)NCCN3CCCC3)cc2N1
